Laboratory results reported in patent US8309718B2, “4-pyrazolyl-N-arylpyrimidin-2-amines and 4-pyrazolyl-N-heteroarylpyrimidin-2-amines as janus kinase inhibitors” (Incyte Corporation, priority 2007, dated 2012).
pIC50: −log10 of the molar value.

What follows are compounds tested against T1, human JAK2 (Homo sapiens, UniProt O60674) (assay: In vitro JAK kinase assay (HTRF, phosphorylation of biotinylated peptide)). Conditions: catalytic domain a.a. 828-1132, 30 μM ATP, 500 nM peptide, room temperature 1 hr; read-out: JAK-2 IC50.
T1 construct: JAK2 (a.a. 828-1132); His tag (N); made in house; host or cells: insect cells (baculovirus)
T1 sequence (O60674 828-1132): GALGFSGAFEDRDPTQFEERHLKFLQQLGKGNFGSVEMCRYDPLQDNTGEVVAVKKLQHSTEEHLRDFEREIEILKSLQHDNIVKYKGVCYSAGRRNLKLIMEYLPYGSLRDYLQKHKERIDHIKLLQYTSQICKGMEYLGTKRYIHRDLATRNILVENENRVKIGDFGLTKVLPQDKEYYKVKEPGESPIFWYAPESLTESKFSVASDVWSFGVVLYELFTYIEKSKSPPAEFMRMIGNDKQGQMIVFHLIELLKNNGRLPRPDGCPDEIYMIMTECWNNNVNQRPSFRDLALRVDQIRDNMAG
Assay type: biochemical
Summary of the method: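 His-tagged human JAK2 catalytic domain (a.a. 828-1132), baculovirus/insect-cell expressed; phosphorylation of 500 nM biotinylated peptide at 30 μM ATP in 50 mM Tris pH 7.8, 100 mM NaCl, 5 mM DTT, 0.01% BSA. 1 h at room temperature, EDTA stop, HTRF read (Eu-Py20/SA-APC); IC50.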
With `CCS(=O)(=O)N1CC(CC#N)(n2cc(-c3ccnc(Nc4ccc(C(=O)N5C6CC7CC5CC(C6)O7)cc4)n3)cn2)C1` [Example 274, 1-(ethylsulfonyl)-3-(4-(2-(4-(2-oxa-6-azatricyclo[3.3.1.1(3,7)]dec-6-ylcarbonyl)phenyl)aminopyrimidin-4-yl)-1H-pyrazol-1-yl)azetidin-3-ylacetonitrile] the pIC50 was > 7.00. In the case of `CCS(=O)(=O)N1CC(CC#N)(n2cc(-c3ccnc(Nc4ccc(C(=O)N5CCC(OC)CC5)cc4)n3)cn2)C1` [Example 275, (1-(ethylsulfonyl)-3-4-(2-(4-((4-methoxypiperidin-1-yl)carbonyl)phenylamino)pyrimidin-4-yl)-1H-pyrazol-1-ylazetidin-3-yl)acetonitrile], the pIC50 was > 7.00. For `CCS(=O)(=O)N1CC(CC#N)(n2cc(-c3ccnc(Nc4ccc(C(=O)N5CC[C@@H](C#N)C5)cc4)n3)cn2)C1` [Example 276, (R)-1-(4-(4-(1-(3-(cyanomethyl)-1-(ethylsulfonyl)azetidin-3-yl)-1H-pyrazol-4-yl)pyrimidin-2-ylamino)benzoyl)pyrrolidine-3-carbonitrile], the pIC50 was > 7.00. With `CCS(=O)(=O)N1CC(CC#N)(n2cc(-c3ccnc(Nc4ccc(C(=O)N5CC[C@H](OC)C5)cc4)n3)cn2)C1` [Example 277, (S)-2-(1-(ethylsulfonyl)-3-(4-(2-(4-(3-methoxypyrrolidine-1-carbonyl)phenylamino)pyrimidin-4-yl)-1H-pyrazol-1-yl)azetidin-3-yl)acetonitrile] the pIC50 was > 7.00. In the case of `CCS(=O)(=O)N1CC(CC#N)(n2cc(-c3ccnc(Nc4ccc(C(=O)N5CC[C@@H](O)C5)cc4)n3)cn2)C1` [Example 278, (R)-2-(1-(ethylsulfonyl)-3-(4-(2-(4-(3-hydroxypyrrolidine-1-carbonyl)phenylamino)pyrimidin-4-yl)-1H-pyrazol-1-yl)azetidin-3-yl)acetonitrile], the pIC50 was > 7.00. With `CCS(=O)(=O)N1CC(CC#N)(n2cc(-c3ccnc(Nc4ccc(C(=O)N5CCN(C)CC5)cc4)n3)cn2)C1` [Example 279, 2-(1-(ethylsulfonyl)-3-(4-(2-(4-(4-methylpiperazine-1-carbonyl)phenylamino)pyrimidin-4-yl)-1H-pyrazol-1-yl)azetidin-3-yl)acetonitrile] the pIC50 was > 7.00. With `CCS(=O)(=O)N1CC(CC#N)(n2cc(-c3ccnc(Nc4ccc(C(=O)N5CC[C@@H](NC(C)=O)C5)cc4)n3)cn2)C1` [Example 280, (R)—N-(1-(4-(4-(1-(3-(cyanomethyl)-1-(ethylsulfonyl)azetidin-3-yl)-1H-pyrazol-4-yl)pyrimidin-2-ylamino)benzoyl)pyrrolidin-3-yl)acetamide] the pIC50 was > 7.00. In the case of `CCS(=O)(=O)N1CC(CC#N)(n2cc(-c3ccnc(Nc4ccc(C(=O)N5CCN(C(C)=O)CC5)cc4)n3)cn2)C1` [Example 281, 2-(3-(4-(2-(4-(4-acetylpiperazine-1-carbonyl)phenylamino)pyrimidin-4-yl)-1H-pyrazol-1-yl)-1-(ethylsulfonyl)azetidin-3-yl)acetonitrile], the pIC50 was > 7.00. With `CCS(=O)(=O)N1CC(CC#N)(n2cc(-c3ccnc(Nc4ccc(C(=O)N5CC[C@H](F)C5)cc4)n3)cn2)C1` [Example 283, (S)-2-(1-(ethylsulfonyl)-3-(4-(2-(4-(3-fluoropyrrolidine-1-carbonyl)phenylamino)pyrimidin-4-yl)-1H-pyrazol-1-yl)azetidin-3-yl)acetonitrile] the pIC50 was > 7.00. In the case of `CCOC(=O)N1CCC(NC(=O)c2ccc(Nc3nccc(-c4cnn(C5(CC#N)CN(S(=O)(=O)CC)C5)c4)n3)cc2)CC1` [Example 284, Ethyl 4-(4-(4-(1-(3-(cyanomethyl)-1-(ethylsulfonyl)azetidin-3-yl)-1H-pyrazol-4-yl)pyrimidin-2-ylamino)benzamido)piperidine-1-carboxylate], the pIC50 was > 7.00. For `N#CCC1(n2cc(-c3ccnc(Nc4ccc(C(=O)N5CC[C@@H](C#N)C5)cc4)n3)cn2)CC(C#N)C1` (stereo partly drawn) [Example 297, (R)-1-(4-(4-(1-(3-cyano-1-(cyanomethyl)cyclobutyl)-1H-pyrazol-4-yl)pyrimidin-2-ylamino)benzoyl)pyrrolidine-3-carbonitrile], the pIC50 was > 7.00. In the case of `CC(=O)N[C@@H]1CCN(C(=O)c2ccc(Nc3nccc(-c4cnn(C5(CC#N)CC(C#N)C5)c4)n3)cc2)C1` (stereo partly drawn) [Example 299, (R)—N-(1-(4-(4-(1-(3-cyano-1-(cyanomethyl)cyclobutyl)-1H-pyrazol-4-yl)pyrimidin-2-ylamino)benzoyl)pyrrolidin-3-yl)acetamide], the pIC50 was > 7.00. `N#CCC1(n2cc(-c3ccnc(Nc4ccc(C(=O)N5[C@@H]6CC[C@H]5C[C@@H](O)C6)cc4)n3)cn2)CC(C#N)C1` (stereo partly drawn) [Example 300, 3-(cyanomethyl)-3-(4-(2-(4-((3-endo)-3-hydroxy-8-azabicyclo[3.2.1]octane-8-carbonyl)phenylamino)pyrimidin-4-yl)-1H-pyrazol-1-yl)cyclobutanecarbonitrile] was tested, and the pIC50 was > 7.00.
